Results reported in ChEMBL document CHEMBL6177939, “The role of silicon in drug discovery: a review” (RSC Med Chem, 2024).
Values after ≈ are worked out from the molar mass of the structure shown.

Columns and labels:
HT-1080 = experiment: Cytotoxicity against human HT-1080 cells assessed as reduction in cell growth measured for 72 hrs by MTT assay; type: functional, cell-based; details: HT-1080, 72 h
MG-22A = experiment: Cytotoxicity against mouse MG-22A cells assessed as reduction in cell growth measured for 72 hrs by MTT assay; type: functional, cell-based
[1] = target: Human immunodeficiency virus type 1 reverse transcriptase (Human immunodeficiency virus 1, UniProt Q72547); experiment: Inhibition of recombinant HIV-1 reverse transcriptase
[2] = system: Human immunodeficiency virus 1; experiment: Antiviral activity against HIV-1 IIIB infected in human MT2 cells assessed as reduction in virus-induced cytopathic effect incubated for 4 days by spectrophotometric based MTT assay; type: functional, organism-based; details: Human immunodeficiency virus 1, IIIB, MT2, 96 h
Aspergillus fumigatus = experiment: Antifungal activity against Aspergillus fumigatus ATCC 66567 assessed as reduction in fungal growth; type: functional
Penicillium chrysogenum = experiment: Antifungal activity against Penicillium chrysogenum ATCC 20044 assessed as reduction in fungal growth; type: functional
Fusarium solani = experiment: Antifungal activity against Fusarium solani ATCC 20327 assessed as reduction in fungal growth; type: functional
Plutella xylostella = experiment: Toxicity in Plutella xylostella assessed as lethal dose; type: organism-based
Mythimna separata = experiment: Toxicity in Mythimna separata assessed as lethal dose; type: organism-based
Bacillus subtilis [3] = experiment: Antibacterial activity against Bacillus subtilis; type: functional
Escherichia coli = experiment: Antibacterial activity against Escherichia coli; type: functional
[4] = system: Staphylococcus epidermidis; experiment: Antibacterial activity against methicillin-resistant Staphylococcus epidermidis 3382 assessed as reduction in bacterial cell growth by broth micro-dilution method; type: functional
Staphylococcus aureus = experiment: Antibacterial activity against methicillin-resistant Staphylococcus aureus assessed as reduction in bacterial cell growth by broth micro-dilution method; type: functional
Pseudomonas aeruginosa = experiment: Antibacterial activity against Pseudomonas aeruginosa PAO1 assessed as reduction in bacterial growth by broth micro-dilution method; type: functional
Bacillus subtilis [5] = experiment: Antibacterial activity against Bacillus subtilis B-407 (all Russian collections of micro-organism) assessed as reduction in bacterial growth by broth micro-dilution method; type: functional
Enterococcus durans = experiment: Antibacterial activity against Enterococcus durans B-603 (all Russian collections of micro-organism) assessed as reduction in bacterial growth by broth micro-dilution method; type: functional
Trichomonas vaginalis = experiment: Antiparasitic activity against Trichomonas vaginalis assessed as reduction in parasite growth measured for 24 hrs by MTT assay; type: functional, organism-based
Giardia intestinalis = experiment: Antiparasitic activity against Giardia intestinalis assessed as reduction in parasite growth incubated for 24 hrs by MTT assay; type: functional, organism-based; details: Giardia duodenalis
[6] = system: Human immunodeficiency virus 1; experiment: Antiviral activity against HIV-1 infected in human MT4 cells; type: functional, organism-based; details: Human immunodeficiency virus 1, MT4
[7] = target: T1, Angiotensin-converting enzyme (Homo sapiens, UniProt P12821); experiment: Binding affinity to ACE (unknown origin) assessed as inhibition constant
T1 sequence (P12821 whole entry): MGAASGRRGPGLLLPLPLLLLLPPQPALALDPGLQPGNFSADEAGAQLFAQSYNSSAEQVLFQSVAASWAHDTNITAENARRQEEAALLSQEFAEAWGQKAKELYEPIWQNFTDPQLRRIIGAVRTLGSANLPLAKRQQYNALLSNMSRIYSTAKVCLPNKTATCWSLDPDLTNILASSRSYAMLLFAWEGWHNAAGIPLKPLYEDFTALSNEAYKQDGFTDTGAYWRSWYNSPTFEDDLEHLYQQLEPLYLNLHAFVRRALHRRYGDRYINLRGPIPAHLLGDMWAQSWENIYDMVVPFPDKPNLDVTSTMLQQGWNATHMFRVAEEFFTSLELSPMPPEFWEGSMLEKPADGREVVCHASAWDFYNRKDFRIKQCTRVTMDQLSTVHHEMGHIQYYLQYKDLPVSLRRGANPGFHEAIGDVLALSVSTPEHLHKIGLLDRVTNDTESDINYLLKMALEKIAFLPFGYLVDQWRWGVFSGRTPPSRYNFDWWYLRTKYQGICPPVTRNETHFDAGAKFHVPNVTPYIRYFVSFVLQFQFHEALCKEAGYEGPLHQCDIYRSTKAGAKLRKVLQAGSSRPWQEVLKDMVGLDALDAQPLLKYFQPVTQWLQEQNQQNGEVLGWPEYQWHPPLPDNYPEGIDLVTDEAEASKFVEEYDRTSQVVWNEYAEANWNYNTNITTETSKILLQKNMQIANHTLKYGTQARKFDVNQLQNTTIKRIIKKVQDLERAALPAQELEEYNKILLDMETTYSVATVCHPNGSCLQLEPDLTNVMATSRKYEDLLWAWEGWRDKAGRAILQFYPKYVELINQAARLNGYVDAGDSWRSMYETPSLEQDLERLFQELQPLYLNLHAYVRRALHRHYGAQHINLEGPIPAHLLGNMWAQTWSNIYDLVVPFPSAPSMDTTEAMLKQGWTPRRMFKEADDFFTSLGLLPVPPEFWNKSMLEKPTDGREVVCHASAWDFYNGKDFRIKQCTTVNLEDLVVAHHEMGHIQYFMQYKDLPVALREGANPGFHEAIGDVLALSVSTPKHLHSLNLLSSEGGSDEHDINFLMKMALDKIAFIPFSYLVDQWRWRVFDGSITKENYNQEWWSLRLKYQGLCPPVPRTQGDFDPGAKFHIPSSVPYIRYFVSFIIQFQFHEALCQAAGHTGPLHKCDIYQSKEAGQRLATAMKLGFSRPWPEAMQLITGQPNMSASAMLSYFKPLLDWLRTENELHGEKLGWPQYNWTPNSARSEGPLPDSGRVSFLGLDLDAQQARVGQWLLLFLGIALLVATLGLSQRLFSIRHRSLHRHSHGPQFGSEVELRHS

WiDr = experiment: Growth inhibition of human WiDr cells measured for 48 hrs by SRB assay; type: functional
HeLa = experiment: Growth inhibition of human HeLa cells measured for 48 hrs by SRB assay; type: functional
T47D = experiment: Growth inhibition of human T47D cells measured for 48 hrs by SRB assay; type: functional
[8] = target: T1, Angiotensin-converting enzyme; experiment: Inhibition of ACE (unknown origin) using Hip-His-Leu-OH peptide as substrate by fluorimetric analysis
MDA-MB-435 [9] = experiment: Growth inhibition of human MDA-MB-435 cells measured for 48 hrs by SRB assay; type: functional
MDA-MB-435 [10] = experiment: Cytotoxicity against human MDA-MB-435 cells assessed as reduction in cell viability incubated for 48 hrs by SRB assay; type: functional, cell-based; details: MDA-MB-435, 48 h
COLO 320 = experiment: Antiproliferative activity against human COLO 320 cells assessed as reduction in cell growth incubated for 24 hrs by MTT assay; type: functional, cell-based; details: COLO 320, 24 h
A2780 = experiment: Antiproliferative activity against human A2780 cells assessed as reduction in cell growth incubated for 24 hrs by MTT assay; type: functional, cell-based; details: A2780, 24 h
COLO 205 = experiment: Antiproliferative activity against human COLO 205 cells assessed as reduction in cell growth incubated for 24 hrs by MTT assay; type: functional, cell-based; details: COLO 205, 24 h

Question: What does the source list for CCCCCCCCCC[Si](C)(CCCCCCCCCC)OCC[N+](C)(C)C.[I-]?
Answer: IC50 (HT-1080): 0.3 µg/mL; IC50 (MG-22A): 1 µg/mL

Question: How did the IC50 [1] turn out when C[Si](O)(O[Si](C)(CCCn1cnc2c(N)ncnc21)c1ccccc1)c1ccccc1 (centres undefined) was run?
Answer: 6000 nM

Question: What about the IC50 [2] of the same molecule?
Answer: 10000 nM

Question: What does the source list for COc1ccc(O)c(/C=N/CCC[Si-]234OCC[N+]2(CCO3)CCO4)c1 (centres undefined)?
Answer: MIC (Aspergillus fumigatus): 0.08 µg/mL (≈ 0.218 µM); MIC (Penicillium chrysogenum): 0.08 µg/mL (≈ 0.218 µM); MIC (Fusarium solani): 0.08 µg/mL (≈ 0.218 µM)

Question: For CCS(=O)(=O)c1cc([Si](C)(C)C)cnc1-c1nc2cc(S(=O)(=O)C(F)(F)F)ccc2o1, which LC50 (Plutella xylostella) is on record?
Answer: 0.3 µg/mL (≈ 0.609 µM)

Question: And the LC50 (Mythimna separata)?
Answer: 4.8 µg/mL (≈ 9.74 µM)

Question: What does the source list for CCN(CC)CC.S=C(S)NCCC[Si-]123OCC[N+]1(CCO2)CCO3 (centres undefined)?
Answer: MIC (Bacillus subtilis [3]): 0.8 µg/mL; MIC (Escherichia coli): 0.765 µg/mL

Question: What does the source list for Fc1ccc(/N=C/c2c(OCc3cn(CCC[Si-]456OCC[N+]4(CCO5)CCO6)nn3)ccc3ccccc23)cc1 (centres undefined)?
Answer: MIC [4]: 3.25 µg/mL (≈ 5.79 µM); MIC (Staphylococcus aureus): 3.25 µg/mL (≈ 5.79 µM); MIC (Pseudomonas aeruginosa): 13.2 µg/mL (≈ 23.6 µM)

Question: For O=C(NCCC[Si-]123OCC[N+]1(CCO2)CCO3)c1ccc[nH]1 (centres undefined), which MIC (Bacillus subtilis [5]) is on record?
Answer: 6.2 µg/mL (≈ 19.1 µM)

Question: What about the MIC (Enterococcus durans) of the same molecule?
Answer: 3.1 µg/mL (≈ 9.53 µM)

Question: What does the source list for CC1C[N+]23CC(C)O[Si-]2(CCC/N=C/c2ccc4c5c6c(ccc25)C=CCC6=CC4)(O1)OC(C)C3 (centres undefined)?
Answer: IC50 (Trichomonas vaginalis): 1750 nM; IC50 (Giardia intestinalis): 53300 nM

Question: How did the EC50 [6] turn out when Cc1cccc(C(O)c2c(C(C)C)c(=O)[nH]c(=O)n2COCc2ccccc2)c1 (centres undefined) was run?
Answer: 200 nM

Question: CC(C)C[C@H](C[Si](O)(O)CNC(=O)CCc1ccccc1)C(=O)NC(=O)N[C@@H](CC(C)C)C(=O)O was tested. Which Ki [7] did it give?
Answer: 10 nM

Question: CC(C)(C)[Si](Oc1ccc2oc(=O)ccc2c1)(c1ccccc1)c1ccccc1 was tested. Which GI50 (WiDr) did it give?
Answer: 32200 nM

Question: What about the GI50 (HeLa) of the same molecule?
Answer: 24100 nM

Question: What about the GI50 (T47D) of the same molecule?
Answer: 26600 nM

Question: CC(CS)C(=O)N1C[Si](C)(C)C[C@H]1C(=O)O (mixture of isomers) was tested. Which IC50 [8] did it give?
Answer: 43 nM

Question: CC[C@@]1(O)C(=O)OCc2c1cc1n(c2=O)Cc2c-1nc1ccc(O)cc1c2[Si](C)(C)C(C)(C)C [AR-67] was tested. Which GI50 (MDA-MB-435 [9]) did it give?
Answer: 21 nM

Question: What about the IC50 (MDA-MB-435 [10]) of the same molecule?
Answer: 14 nM

Question: Which IC50 (COLO 320) does the source give for CC[C@@]1(O)C(=O)OCc2c1cc1n(c2=O)Cc2c-1nc1ccccc1c2CC[Si](C)(C)C [COSITECAN] here?
Answer: 1.5 nM

Question: What about the IC50 (A2780) of the same molecule?
Answer: 1.8 nM

Question: What about the IC50 (COLO 205) of the same molecule?
Answer: 1.5 nM
